Entries after “also recorded” stand apart in the source; their conditions may differ. Read-outs that look alike come from different tables or passages of the source.
Legend:
[1] = system: tested cancer cell lines (A549, DLD-1, MCF7, PC-3); assay: Cytotoxicity assay (resazurin reduction, 48 h), summary over the tested cancer cell lines; assay type: cell-based, human; conditions: for cytotoxicity compared with reference or other tested compounds: tested cancer cell lines, P<0.05 where stated; for IC50: range or bound over the cell lines, read-out: IC50 against the tested cancer cell lines
Experimental: (§1) Human lung carcinoma (A549, ATCC # CCL-185™), human colorectal adenocarcinoma (DLD-1, ATCC # CCL-221™), human breast adenocarcinoma (MCF7, ATCC # HTB-22™), human prostate adenocarcinoma (PC-3, ATCC # CCL-1435™) and human normal skin fibroblasts (WS1, ATCC # CRL-1502™) cell lines were obtained from the American Type Culture Collection (ATCC). All cell lines were cultured in minimum essential medium containing Earle's salts and L-glutamine (Mediatech Cellgro, VA), to which were added 10% fetal bovine serum (Hyclone), vitamins (1×), penicillin (100 IU/mL) and streptomycin (100 μg/mL), essential amino acids (1×), and sodium pyruvate (1×) (Mediatech Cellgro, VA). Cells were kept at 37° C. in a humidified environment containing 5% CO2.
(§2) Exponentially growing cells were plated in 96-well microplates (Costar, Corning Inc.) at a density of 5×10^3 cells per well in 100 μL of culture medium and were allowed to adhere for 16 h before treatment. Increasing concentrations of each compound in biotechnology performed certified dimethyl sulfoxide (DMSO) (Sigma-Aldrich, Cat. # D2438) and the cells were incubated for 48 h. The final concentration of DMSO in the culture medium was maintained at 0.5% (v/v) to avoid solvent toxicity. Cytotoxicity was assessed using resazurin (O'Brien, J. et al., 2000. Eur J Biochem 267(17): 5421-6) on an automated 96-well Fluoroskan Ascent F1™ plate reader (Labsystems) using excitation and emission wavelengths of 530 and 590 nm, respectively. Fluorescence was proportional to the cellular metabolic activity in each well. Survival percentage was defined as the fluorescence in experimental wells compared to that in control wells after subtraction of blank values. Each experiment was carried out twice in triplicate. IC50 results are expressed as mean±standard deviation.
In vitro cytotoxic activity of lupane-type bidesmosidic saponins was evaluated against four human cancer cell lines including lung carcinoma (A549), and colorectal (DLD-1), breast (MCF7) and prostate (PC-3) adenocarcinomas. The parent triterpenoids betulin (1) (Gauthier et al., 2006, supra), betulinic acid (2) (Kessler, J. H. et al., Cancer Lett. 2007, 251: 132-145) and the clinically used etoposide were used as positive controls. The cytotoxicity of 28-O-β-D-glucopyranosides of betulin (Gauthier et al., 2006, supra) and betulinic acid (Baglin et al., 2003, supra) was also investigated. The cell viability was assessed through resazurin reduction test (O'Brien et al, 2000, supra) after 48 hours of incubation between the compounds and cells. Since resazurin (Alamar blue) is a nontoxic dye, measurements can be obtained without killing the cells as opposed to the standard MTT assay (Bellamy, W. T. Drugs 1992, 44: 690-708). […]

lung carcinoma (A549) [2] = assay: Cytotoxicity assay (resazurin reduction, 48 h), A549; assay type: cell-based, human
Experimental: as §1, §2
(§3) In vitro cytotoxic activity of lupane-type bidesmosidic saponins was evaluated against four human cancer cell lines including lung carcinoma (A549), and colorectal (DLD-1), breast (MCF7) and prostate (PC-3) adenocarcinomas. The parent triterpenoids betulin (1) (Gauthier et al., 2006, supra), betulinic acid (2) (Kessler, J. H. et al., Cancer Lett. 2007, 251: 132-145) and the clinically used etoposide were used as positive controls. The cytotoxicity of 28-O-β-D-glucopyranosides of betulin (Gauthier et al., 2006, supra) and betulinic acid (Baglin et al., 2003, supra) was also investigated. The cell viability was assessed through resazurin reduction test (O'Brien et al, 2000, supra) after 48 hours of incubation between the compounds and cells. Since resazurin (Alamar blue) is a nontoxic dye, measurements can be obtained without killing the cells as opposed to the standard MTT assay (Bellamy, W. T. Drugs 1992, 44: 690-708). The cytotoxicity results were expressed as the concentration inhibiting 50% of the cell growth (IC50).

[3] = system: prostate adenocarcinoma (PC-3); assay: Cytotoxicity assay (resazurin reduction, 48 h), PC-3; assay type: cell-based, human
Experimental: as §1, §2, §3

[4] = system: colorectal adenocarcinoma (DLD-1); assay: Cytotoxicity assay (resazurin reduction, 48 h), DLD-1; assay type: cell-based; conditions: mean ± SD
Experimental: as §1, §2, §3

[5] = system: breast adenocarcinoma (MCF7); assay: Cytotoxicity assay (resazurin reduction, 48 h), MCF7; assay type: cell-based, human
Experimental: as §1, §2, §3

lung carcinoma (A549) [6] = conditions: human lung carcinoma; footnote g: previously reported in Gauthier et al. 2006; cited from earlier work
[7] = system: colorectal adenocarcinoma (DLD-1); conditions: human colorectal adenocarcinoma; footnote g: previously reported in Gauthier et al. 2006; cited from earlier work
[8] = human lung carcinoma, 48 h, resazurin, mean ± SD
[9] = human prostate adenocarcinoma, 48 h, resazurin, mean ± SD, read-out: IC50 PC-3
[10] = human colorectal adenocarcinoma
[11] = human breast adenocarcinoma, 48 h, resazurin, mean ± SD, read-out: IC50 MCF7

Compound | IC50 (lung carcinoma (A549) [2]; [8]) | IC50 [3, 9] | IC50 [4, 10] | IC50 [5, 11] | other results
28-O-α-L-Rhamnopyranosyl betulinic acid 3β-O-α-L-rhamnopyranoside [Compound 22b] | 7.2 ± 0.5 µM | 7.2 ± 0.5 µM | 7.3 ± 0.3 µM | 6 ± 0.6 µM | cytotoxicity compared with reference or other tested compounds [1]: significantly more active than their parent triterpenoids
28-O-β-D-Glucopyranosyl betulin 313-O-α-L-rhamnopyranoside [Compound 16b] | 16.8 ± 0.9 µM | 6.9 ± 0.4 µM | 10.6 ± 0.9 µM | 9 ± 0.7 µM | –
28-O-β-D-Glucopyranosyl betulin [Compound 28GBet, reference compound] | – | > 100 µM | > 100 µM | > 100 µM | IC50 (lung carcinoma (A549) [6]): > 100 µM
C=C(C)[C@@H]1CC[C@]2(C(=O)O)CC[C@]3(C)[C@H](CC[C@@H]4[C@@]5(C)CC[C@H](O)C(C)(C)[C@@H]5CC[C@]43C)[C@@H]12 [Compound 2, Betulinic acid] | – | 40 ± 2 µM | – | 41 ± 1 µM | IC50 [7]: 15 µM; IC50 (lung carcinoma (A549) [6]): 10.3 ± 0.4 µM
C=C(C)[C@@H]1CC[C@]2(C(=O)O[C@@H]3O[C@H](CO)[C@@H](O)[C@H](O)[C@H]3O)CC[C@]3(C)[C@H](CC[C@@H]4[C@@]5(C)CC[C@H](O[C@@H]6OC[C@H](O)[C@H](O)[C@H]6O)C(C)(C)[C@@H]5CC[C@]43C)[C@@H]12 [Compound 3, 28-O-β-D-Glucopyranosyl betulinic acid 3β-O-α-L-arabinopyranoside] | 76 ± 4 µM | 68 ± 7 µM | 60 ± 5 µM | 23 ± 1 µM | IC50 [1]: 23 to 76 µM
C=C(C)[C@@H]1CC[C@]2(CO[C@@H]3O[C@H](CO)[C@@H](O)[C@H](O)[C@H]3O)CC[C@]3(C)[C@H](CC[C@@H]4[C@@]5(C)CC[C@H](O[C@@H]6OC[C@H](O)[C@H](O)[C@H]6O)C(C)(C)[C@@H]5CC[C@]43C)[C@@H]12 [Compound 16a, 28-O-β-D-Glucopyranosyl betulin 313-O-α-L-arabinopyranoside] | > 100 µM | – | 19 ± 2 µM | – | IC50 ([3]; PC-3 cell line, read-out: IC50 against PC-3): 5.3 µM; IC50 ([5]; breast adenocarcinoma (MCF7), read-out: IC50 against MCF7): 9.5 µM
C=C(C)[C@@H]1CC[C@]2(C(=O)O[C@@H]3O[C@H](CO)[C@@H](O)[C@H](O)[C@H]3O)CC[C@]3(C)[C@H](CC[C@@H]4[C@@]5(C)CC[C@H](O[C@@H]6O[C@@H](C)[C@H](O)[C@@H](O)[C@H]6O)C(C)(C)[C@@H]5CC[C@]43C)[C@@H]12 [Compound 19, 28-O-β-D-Glucopyranosyl betulinic acid 3β-O-α-L-rhamnopyranoside] | 23 ± 1 µM | 11.2 ± 0.8 µM | 11 ± 0.5 µM | 5.7 ± 0.6 µM | –
C=C(C)[C@@H]1CC[C@]2(CO[C@@H]3O[C@H](CO)[C@@H](O)[C@H](O)[C@H]3O)CC[C@]3(C)[C@H](CC[C@@H]4[C@@]5(C)CC[C@H](O[C@@H]6O[C@H](CO)[C@@H](O)[C@H](O)[C@H]6O)C(C)(C)[C@@H]5CC[C@]43C)[C@@H]12 [Compound 21a, 28-O-β-D-Glucopyranosyl betulin 3β-O-β-D-glucopyranoside] | > 100 µM | > 100 µM | 27 ± 2 µM | 14.5 ± 0.9 µM | cytotoxicity compared with betulinic acid, MCF7 ([5]; breast adenocarcinoma (MCF7)): significantly more active than betulinic acid (2)
C=C(C)[C@@H]1CC[C@]2(C(=O)O[C@@H]3O[C@H](CO)[C@@H](O)[C@H](O)[C@H]3O)CC[C@]3(C)[C@H](CC[C@@H]4[C@@]5(C)CC[C@H](O[C@@H]6O[C@H](CO)[C@@H](O)[C@H](O)[C@H]6O)C(C)(C)[C@@H]5CC[C@]43C)[C@@H]12 [Compound 21b, 28-O-β-D-Glucopyranosyl betulinic acid 3β-O-β-D-glucopyranoside] | > 100 µM | 66 ± 3 µM | > 100 µM | 20 ± 2 µM | cytotoxicity compared with betulinic acid, MCF7 ([5]; breast adenocarcinoma (MCF7)): significantly more active than betulinic acid (2)
C=C(C)[C@@H]1CC[C@]2(CO[C@@H]3O[C@@H](C)[C@H](O)[C@@H](O)[C@H]3O)CC[C@]3(C)[C@H](CC[C@@H]4[C@@]5(C)CC[C@H](O[C@@H]6O[C@@H](C)[C@H](O)[C@@H](O)[C@H]6O)C(C)(C)[C@@H]5CC[C@]43C)[C@@H]12 [Compound 22a, 28-O-α-L-Rhamnopyranosyl betulin 3β-O-α-L-rhamnopyranoside] | 1.9 ± 0.1 µM | 1.8 ± 0.1 µM | 1.9 ± 0.1 µM | 1.7 ± 0.2 µM | IC50 [1]: 1.7 to 1.9 µM; cytotoxicity compared with reference or other tested compounds [1]: significantly more active than their parent triterpenoids; also recorded: the most potent of all tested compounds
C=C(C)[C@@H]1CC[C@]2(C(=O)O[C@@H]3O[C@H](CO)[C@@H](O)[C@H](O)[C@H]3O)CC[C@]3(C)C(CC[C@@H]4[C@@]5(C)CC[C@H](O)C(C)(C)[C@@H]5CC[C@]43C)[C@H]12 (stereo partly drawn) [Compound 28GBetA, 28-O-β-D-glucopyranosyl betulinic acid, reference compound] | > 100 µM | > 100 µM | > 100 µM | > 100 µM | –
COc1cc([C@@H]2c3cc4c(cc3[C@@H](O[C@@H]3O[C@@H]5CO[C@@H](C)O[C@H]5[C@H](O)[C@H]3O)[C@H]3COC(=O)[C@H]23)OCO4)cc(OC)c1O [Etoposide, etoposide, reference compound] | – | – | – | – | IC50 (lung carcinoma (A549) [2]; A549, human lung carcinoma, 48 h, resazurin, mean ± SD): 3.4 ± 0.1 µM; IC50 ([4]; DLD-1, human colorectal adenocarcinoma): 27 ± 5 µM
betulinic acid 3 β-O-α-L-rhamnopyranoside [reference compound] | – | – | – | – | IC50 (lung carcinoma (A549) [2]; A549, comparator named in text): 3.8 µM

Source: US20110224159A1, “BIDESMOSIDIC BETULIN AND BETULINIC ACID DERIVATIVES AND USES THEREOF AS ANTITUMOR AGENTS” (Universite du Quebec a Chicoutime, priority 2008, published 2011)
